Test results reported in patent US20240279205A1, “NOVEL BENZIMIDAZOLE DERIVATIVE” (Carna Biosciences, Inc., priority 2020, published 2024).
Values belong to the molecule of their own block, whether it stands above or below them.

Key:
[1] = system: STING activation (IFN-β production in THP-1 cells); experiment: Human IFN-β production inhibition test by cGAMP stimulation in THP-1 cells; type: cell-based; design: IFN-β bioinhibitory activity: scale not given here; conditions: 2'3'-cGAMP transfection, 18 hours, IFN-β ELISA
Procedure, shortened: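 PMA-primed (100 nM, overnight) THP-1 cells pretreated 1 h with compound at 0.001 to 1 μM (0.1% DMSO), then transfected with 0.12 μg/well 2′3′-cGAMP and cultured 18 hours. Supernatant IFN-β measured by ELISA; IC50 by regression against log concentration, normalised to cGAMP-only (100%) and unstimulated (0%) controls.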

human STING (hSTING) = target: T1, human STING (hSTING) (Homo sapiens, UniProt Q86WV6); experiment: Inhibition test of intracellular human STING (hSTING) pathway using SEAP reporter cells (HEK-Blue ISG), stimulation with Compound 3; type: cell-based; design: hSTING inhibitory activity: scale not given here; conditions: Compound 3 10 nM stimulation, 21 hours
T1 construct: host or cells: HEK-Blue ISG cells (HEK293-derived SEAP reporter line)
Procedure, shortened: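 IC50 derived by regressing inhibition rate against log compound concentration (0.1 to 10 μM final, added 1 h before agonist), with 0% and 100% set by wells without and with 10 nM Compound 3. SEAP colour reaction read after 21 h stimulation of HEK-Blue ISG reporter cells.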

T1 sequence (Q86WV6 whole entry H232R): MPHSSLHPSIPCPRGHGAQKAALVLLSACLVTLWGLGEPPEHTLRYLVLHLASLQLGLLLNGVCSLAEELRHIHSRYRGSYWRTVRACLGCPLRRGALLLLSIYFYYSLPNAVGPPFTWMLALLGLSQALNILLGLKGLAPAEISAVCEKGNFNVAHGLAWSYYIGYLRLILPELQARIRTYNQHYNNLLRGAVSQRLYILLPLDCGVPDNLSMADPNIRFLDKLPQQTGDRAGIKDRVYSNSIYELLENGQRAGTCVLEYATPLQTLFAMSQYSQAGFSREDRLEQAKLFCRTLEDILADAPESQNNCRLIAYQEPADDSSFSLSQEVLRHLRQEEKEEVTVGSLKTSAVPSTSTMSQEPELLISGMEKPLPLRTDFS

- hSTING inhibitory activity (human STING (hSTING)): * *
SMILES: CN(C)c1cccc(Oc2ccc3[nH]c(Nc4c[nH]c5ccc(Br)cc45)nc3c2)c1 [Example 26, N-(5-bromo-1H-indol-3-yl)-5-[3-(dimethylamino)phenoxy]-1H-benzo[d]imidazol-2-amine]
- IFN-β bioinhibitory activity [1]: * *

- hSTING inhibitory activity (human STING (hSTING)): * *
SMILES: FC(F)(F)c1ccc2[nH]c(Nc3c[nH]c4ccc(Br)nc34)nc2c1 [Example 31, N-(5-bromo-1H-pyrrolo[3,2-b]pyridin-3-yl)-5-(trifluoromethyl)-1H-benzo[d]imidazol-2-amine]
- IFN-β bioinhibitory activity [1]: * * *

The next lines start with the molecule.

SMILES: N#Cc1ccc2[nH]c(Nc3c[nH]c4ccc(Br)cc34)nc2c1 [Example 19, 2-[(5-bromo-1H-indol-3-yl)amino]-1H-benzo[d]imidazole-5-carbonitrile]
- IC50 ([1]; Homo sapiens, read-out: IFN-β bioinhibitory activity): 100 to 1000 nM
- hSTING inhibitory activity (human STING (hSTING)): * *

SMILES: Brc1ccc2[nH]cc(Nc3nc4c(Br)cccc4[nH]3)c2c1 [Example 24, 4-bromo-N-(5-bromo-1H-indol-3-yl)-1H-benzo[d]imidazol-2-amine]
- IFN-β bioinhibitory activity [1]: * *
- hSTING inhibitory activity (human STING (hSTING)): * *

SMILES: Fc1cccc2[nH]c(Nc3c[nH]c4ccc(Br)cc34)nc12 [Example 25, N-(5-bromo-1H-indol-3-yl)-4-fluoro-1H-benzo[d]imidazol-2-amine]
- IFN-β bioinhibitory activity [1]: * *
- hSTING inhibitory activity (human STING (hSTING)): * *
